Measurements from PMC6272605, “Development and Validation of a Docking-Based Virtual Screening Platform for the Identification of New Lactate Dehydrogenase Inhibitors” (Molecules, 2015).

Biological target: T1, purified human lactate dehydrogenase isoform 5 (hLDH5) (Homo sapiens, UniProt P00338)
T1 construct: purchased Lee Biosolution, Inc., St. Louis, MO, USA
Assay: hLDH5 inhibition assay (pyruvate→lactate, NADH fluorescence)
Type: biochemical
Conditions: 200 μM pyruvate, 40 μM NADH, phosphate buffer pH 7.4, 15 min incubation
Protocol: LDH assays: The LDH inhibition properties of the selected compounds were evaluated against purified human lactate dehydrogenase isoform 5 (Lee Biosolution, Inc., St. Louis, MO, USA). The “forward” direction (pyruvate→lactate) of the lactate dehydrogenase reaction was conducted, and the kinetic parameters were measured by fluorescence (emission wavelength at 460 nm, excitation wavelength at 340 nm) to monitor the amount of consumed NADH. Assays were carried out in wells containing 200 μL of a reagent solution dissolved in 100 mM phosphate buffer (pH = 7.4). For the IC50 calculations of the compounds, seven different concentrations (in duplicate for each concentration) of the isolated compounds were used to produce the concentration-response curve. All of the compounds were tested in the presence of 200 μM pyruvate and 40 μM NADH. Any background fluorescence likelihood of the tested samples, or NADH fluorescence quenching, was subtracted. In addition to the sample test wells, maximum and minimum controls were also included in each plate. After 15 min of incubation, the final measurements were carried out by using a Victor X3 Microplates Reader (PerkinElmer®). IC50 values were produced using GraphPad Prism software.
Work on `CC(C)C(NC(=O)OCc1ccccc1)C(=O)Nc1ccccc1` (centres unmarked) [VS6] yielded an IC50 of 246 ± 10.8 µM. For `O=C(O)CCC(=O)c1ccc(F)cc1` [VS7], the IC50 was > 500 µM. Molecule `O=c1cc2oc(O)c3cc(O)c(O)c(O)c3c-2oc1=O` [galloflavin] has an IC50 of 91.7 ± 10.7 µM. In the case of `Cc1ccc(C)c(C(O)C(=O)O)c1` (centres unmarked) [VS5], the IC50 is reported as > 500 µM. With `O=C(O)c1ccc(NCCO)cc1` [VS1, 4-((2-Hydroxyethyl)amino)benzoic acid] the IC50 was > 500 µM. With `Cc1ccc(S(=O)(=O)Nc2ccc(C(=O)O)cc2)cc1` [VS2, 4-(4-Methylphenylsulfonamido)benzoic acid] the IC50 was > 500 µM. In the case of `Cc1ccc(C(N)C(=O)O)cc1` (centres unmarked) [VS10], the IC50 is reported as > 500 µM. Molecule `O=C(O)c1cc2c(C(F)(F)F)cc(-c3ccccc3)cc2n1O` [NHI-1] has an IC50 of 51.7 ± 4.2 µM. For `O=C(O)CN1CC(c2ccccc2)OC1=O` (centres unmarked) [VS3, 2-(2-Oxo-5-phenyloxazolidin-3-yl)acetic acid], the IC50 was > 500 µM. `COC(=O)C(NC(=O)c1cc([N+](=O)[O-])cc([N+](=O)[O-])c1)c1ccccc1` (centres unmarked) [VS8] showed an IC50 of 269 ± 58.1 µM. In the case of `O=C(O)CCCC(=O)Nc1ccccc1` [VS4], the IC50 is reported as > 500 µM.

Tested on: LDH
Assay: not given
Set-up: method as in earlier work
Conditions: Table S1, active compounds included in the enriched dataset; LDH inhibitors binding the open conformation in the presence of NADH; cited from earlier work
In the case of `C[C@@H](Nc1nc(-c2cc(C(=O)O)ccc2Cl)cnc1N)c1ccccc1` [Compound 3], the IC50 is given as 0.48 µM. For `COC(=O)c1ccc(NS(=O)(=O)c2ccc(C)cc2)cc1` [Compound 7], the IC50 is given as 7.4 µM. For `O=C1NCC(c2ccccc2)O1` (centres unmarked) [Compound 9], the IC50 is listed as 14 µM. For `Cc1nc2ccc(NC(=O)CCNC(=O)CCCc3ccc(CC(C(=O)O)C(=O)O)cc3)cc2s1` [Compound 2], the IC50 is given as 12.1 µM. In the case of `Nc1ccc(C(=O)O)cc1` [Compound 4], the IC50 is listed as 0.75 µM. For `COC(=O)c1ccc(NCCO)cc1` [Compound 6], the IC50 is given as 0.65 µM. In the case of `COC(=O)c1ccc(N)cc1` [Compound 5], the IC50 is given as 0.71 µM. For `NCC(O)c1ccccc1` (centres unmarked) [Compound 8], the IC50 is given as 4 µM. In the case of `CC(C)(C)OC(=O)CN1CC(c2ccccc2)OC1=O` (centres unmarked) [Compound 10], the IC50 is listed as 10 µM.
